# Source: patent US11173175B2, “Uridine diphosphate compounds as mobilizers of hematopoietic progenitor cells” (University of Pittsburgh—Of the Commonwealth System of …, priority 2012, dated 2021)
# “Also recorded” adds a separate entry of the source.
# T1: P2Y14 receptor (Homo sapiens, UniProt Q15391)
# T1 sequence (Q15391 1-338): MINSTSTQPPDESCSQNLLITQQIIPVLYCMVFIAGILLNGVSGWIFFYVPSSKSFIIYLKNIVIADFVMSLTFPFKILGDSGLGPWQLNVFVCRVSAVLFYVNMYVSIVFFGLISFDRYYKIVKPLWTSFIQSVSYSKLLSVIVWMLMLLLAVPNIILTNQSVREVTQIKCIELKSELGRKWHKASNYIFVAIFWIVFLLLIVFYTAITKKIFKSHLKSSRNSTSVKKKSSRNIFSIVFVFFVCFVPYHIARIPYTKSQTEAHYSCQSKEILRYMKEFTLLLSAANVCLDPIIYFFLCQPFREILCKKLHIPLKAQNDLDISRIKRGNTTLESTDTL
# B1: G-CSF: G-CSF (Neupogen, Amgen), most commonly used cytokine for mobilization of HSPCs (protein, chains of the INN, looked up)
# chain: MTPLGPASSLPQSFLLKCLEQVRKIQGDGAALQEKLCATYKLCHPEELVLLGHSLGIPWAPLSSCPSQALQLAGCLSQLHSGLFLYQGLLQALEGISPELGPTLDTLQLDVADFATTIWQQMEELGMAPALQPTQGAMPAFASAFQRRAGGVLVASHLQSFLEVSYRVLRHLAQP
# Legend:
# [1] = target: T1, P2Y14 receptor; conditions: cited from earlier work
# [2] = test system: osteoclasts; assay: TRAP staining of femur sections; type: in vivo, mice; conditions: NAC treatment
# [3] = test system: LSK and SLAM LSK cells; assay: HSPC mobilization: LSK and SLAM LSK cells quantified by flow cytometry; type: in vivo, mice
# Method: (§1) We used 4-6 weeks old C57BL6 and BALB/C in all the experiments. Mice received subcutaneous injections of UDP-glucose (200 mg/kg, Sigma) dissolved in sterile endotoxin-free PBS. G-CSF (Neupogen, Amgen) was administered daily at a dose of 300 μg/kg subcutaneously for 4 consecutive days as previously described (Broxmeyer et al., 2005). […] Antioxidant, N-acetyl-L-cysteine (Sigma-Aldrich), was administered subcutaneously at 100 mg/kg/day. Bone marrow cells were obtained from both femur and tibia and used for flow cytometry and Western blot analysis. All animal studies were conducted after review by the University of Pittsburgh's Institutional Animal Care and Use Committee and in accordance with the University of Pittsburgh's Policy on the Care, Welfare and Treatment of Laboratory Animals.
# Peripheral blood Lin-/Sca-1+/c-Kit+(LSK) and CD150+CD48-(SLAM) LSK cells were phenotyped using the following antibodies: lineage markers PE-Cy7-conjugated anti-CD3, anti-CD4, anti-CD8, anti-CD45R, anti-CD11b, anti-Gr-1, and anti-TER-119 (eBioscience); PE-conjugated anti-Sca-1 (eBioscience); APC-conjugated anti-c-Kit (eBioscience); perCP/Cy5.5-conjugated anti-CD150 (BioLegend); pacific Blue™-conjugated anti-CD48 (BioLegend). […] Mitochondrial superoxide level was measured using MitoSox™ (Invitrogen) within LSK cells, according to manufacturer's instructions.
# as §1, with “Mice” for “We used 4-6 weeks old C57BL6 and BALB/C in all the experiments. Mice”, “(10).” for “(Broxmeyer et al., 2005).”
# [4] = test system: CXCR4; assay: CXCR4 expression on LSK and SLAM LSK cells; type: in vivo, mice
# Method: FIG. 14A-14F. […] HSPC mobilization was assessed by measuring the numbers of LSK (upper left panel) and SLAM LSK (upper right panel) cells in peripheral blood. […] Representative images of TRAP staining from each group are shown (bottom panels). […] Shown are obtained from 6-8 weeks old animals. (C) Mice (B6) were injected as described in the legend to FIG. 11A. Bone marrow cells were collected from each treatment group and stained with indicated antibodies followed by flow cytometry analysis. The data are shown as mean values of three independent experiments with standard deviation. ** p<0.01. (D) Bone marrow mononuclear cells were isolated from B6 mice treated as above. To determine the protease activity, bone marrow supernatants harvested from indicated treatment groups were analyzed by zymogram analysis as described in the Methods section. The intensity of the zymogram bands (left panels) was analyzed utilizing densitometry and expressed as arbitrary units (right panels). Densitometric analyses are represented as the ratios to vehicle-treated group (CTL) set to 1. […] (E) Mice were treated as described in the legend to FIG. 13F. Expression levels of CXCR4 were determined in bone marrow (upper panel) and peripheral blood (lower panel) cells after gating on LSK or SLAM LSK subsets. Data are expressed as mean±SD from at least two independent experiments with four mice per group. […]
# [5] = test system: bone marrow homing of peripheral blood cells
# [6] = test system: RANKL; assay: RANKL expression by Western blot and immunohistochemistry; type: in vivo, mice; conditions: NAC 100 mg/kg/day in comparison with UDP-Glc-treated animals
# [7] = test system: LSK cells; assay: Chemotaxis assay; type: cell-based, mouse; conditions: CXCL12 120 ng/ml; UDP-Glc, UTP, UDP 10 μM; 6 hours
# [8] = target: T1, P2Y14 receptor; conditions: Carter et al. 2009; cited from earlier work
# [9] = test system: white blood cell (WBC) and lineage-marker expressing cells (CD3, CD11b, and Gr-1); conditions: G-CSFR deficient mice
# [10] = test system: long-term repopulating HSPCs; assay: Competitive repopulation and serial transplantation assays; type: in vivo, mice
# Method: (§2) The ratio of CD45.1/CD45.2 cells in recipient's peripheral blood was determined at various times after transplantation.
# as §2
# [11] = test system: cathepsin G (CG); assay: Zymographic analysis of bone marrow supernatants; type: in vivo, mice
# Method: (§3) FIG. 14A-14F. […] HSPC mobilization was assessed by measuring the numbers of LSK (upper left panel) and SLAM LSK (upper right panel) cells in peripheral blood. […] Representative images of TRAP staining from each group are shown (bottom panels). […] Shown are obtained from 6-8 weeks old animals. (C) Mice (B6) were injected as described in the legend to FIG. 11A. Bone marrow cells were collected from each treatment group and stained with indicated antibodies followed by flow cytometry analysis. The data are shown as mean values of three independent experiments with standard deviation. ** p<0.01. (D) Bone marrow mononuclear cells were isolated from B6 mice treated as above. To determine the protease activity, bone marrow supernatants harvested from indicated treatment groups were analyzed by zymogram analysis as described in the Methods section. The intensity of the zymogram bands (left panels) was analyzed utilizing densitometry and expressed as arbitrary units (right panels). Densitometric analyses are represented as the ratios to vehicle-treated group (CTL) set to 1. […] (E) Mice were treated as described in the legend to FIG. 13F. Expression levels of CXCR4 were determined in bone marrow (upper panel) and peripheral blood (lower panel) cells after gating on LSK or SLAM LSK subsets. Data are expressed as mean±SD from at least two independent experiments with four mice per group. […] Recipient mice were conditioned (11 Gy) 24 hours before injection of cells.
# [12] = test system: neutrophil elastase (NE); assay: Zymographic analysis of bone marrow supernatants; type: in vivo, mice
# Method: as §3
# [13] = test system: MMP-9; assay: Zymographic analysis of bone marrow supernatants; type: in vivo, mice
# Method: as §3
# [14] = percentage of gated cells within the total number, UDP-Glc 200 mg/kg 6 days, G-CSF 300 μg/kg 4 days
molecule,measurement,setting,value
O=c1ccn([C@@H]2O[C@H](COP(=O)([O-])OP(=O)([O-])O[C@H]3O[C@H](CO)[C@@H](O)[C@H](O)[C@H]3O)[C@@H](O)[C@H]2O)c(=S)[nH]1.[Na+].[Na+] [MRS 2690],potency relative to UDP-Glc,[1],approximately 7 fold
"CC(=O)N[C@@H](CS)C(=O)O [NAC, N-acetyl-L-cysteine]",UDP-Glc-induced osteoclastogenesis with NAC,[2],significantly suppressed with NAC treatment
same,effect of NAC on UDP-Glc-induced LSK / SLAM LSK cell mobilization,[3]; NAC 100 mg/kg/day s.c.,significantly abrogate the LSK and SLAM LSK cell mobilization induced by UDP-Glc; also recorded: significantly suppressed by NAC treatment
same,effect of NAC on UDP-Glc-induced CXCR4 expression,[4],"able to abrogate the increase of CXCR4 expression induced by UDP-Glc, albeit not completely"
same,effect of NAC pretreatment on homing of UDP-Glc-mobilized cells,[5],inhibited by NAC pretreatment
same,RANKL expression with NAC,[6],notably lowered
"O=c1ccn([C@@H]2O[C@H](COP(=O)(O)OP(=O)(O)O)[C@@H](O)[C@H]2O)c(=O)[nH]1 [UDP, uridine diphosphate]",chemotactic migration of mouse LSK cells,[7],could chemoattract LSK cells in vitro in the presence or absence of CXCL12
same,agonist activity at the human P2Y14 receptor,[8],potent agonist of the human P2Y14 receptor
same,"LSK cells in the peripheral circulation, UDP alone",[3]; UDP 200 mg/kg s.c.,did not elicit any appreciable change in the number of LSK cells
same,effect of UDP on UDP-Glc-induced LSK cell mobilization,[3]; UDP 200 mg/kg with UDP-Glc 200 mg/kg,antagonized UDP-Glc-induced LSK cell mobilization
same,"peripheral CD11b+, GR1+ and CD3+ cells in Csf3r−/− mice",[9],minimally affected
"O=c1ccn([C@@H]2O[C@H](COP(=O)(O)OP(=O)(O)OP(=O)(O)O)[C@@H](O)[C@H]2O)c(=O)[nH]1 [UTP, uridine-5′-triphosphate, reference compound]",chemotactic migration of mouse LSK cells,[7],only a slight increase for mouse LSK cell migration with no statistical significance
B1,"competitive repopulation, UDP-Glc- vs G-CSF-mobilized cells, early",[10]; one month following transplantation,considerable competitive advantage over UDP-Glc-mobilized cells
same,"competition in secondary recipients, bone marrow cells","[10]; serial transplantation, UDP-Glc (CD45.2) vs G-CSF (CD45.1)",completely out-competed by the cells derived from UDP-Glc mobilization
same,LSK cells in mobilized peripheral blood,[3]; [14],0.058%
same,SLAM LSK cells in mobilized peripheral blood,[3]; [14],0.0014%
same,level of CG,[11],Elevated levels
same,level of NE,[12],Elevated levels
same,level of MMP-9,[13],Elevated levels
